How the values were obtained:
Lmna^H222P/H222P mice = assay: Echocardiography and heart size in treated Lmna H222P/H222P mice; format: in vivo, mouse
Procedure: Mice were bred in an accredited animal facility (accreditation number: C-75-13-08). All experiments on mice were approved by the Comité d'éthique en expérimentation animate Charles Darwin No 5. Mice Lmna^H222P/H222P were backcrossed 8 times to 129S2/SvPasOrlRj strain mice to obtain pure genetic background. Male mice used for the studies were maintained under a 12 h light/12 h dark cycle at constant temperature (23° C.) with free access to food and water. Nicotinamide riboside (NR) complementation: Animals at 17 weeks of age were fed for 9 weeks with either a chow diet (A04: Scientific Animal Food & Engineering) or a chow diet complemented with 0.25% of NR (kindly provided by ChromaDex, Inc. California) corresponding to a dose of 400 mg/kg/day for a mouse weighing 25 g eating 4 g of food per day. Nicotinamide (NAM) treatment: Animals at 17 weeks of age were injected intraperitoneally (IP) every two days (q.a.d.) for 9 weeks with either physiologic serum or physiologic serum added with NAM at 50 mg/ml corresponding to a dose of 500 mg/kg for a mouse weighing 25 g.
Mouse transthoracic echocardiography was performed using an ACUSON 128XP/10 ultrasound with a 11 Mhz linear probe (Mountain View).MHz transducer applied to the chest wall. Mice were maintained under anesthetized with 0.75% isoflurane anaesthesia (0.75% in O2) and placed on a heating pad (25° C.). Left ventricular (LV) parameters were obtained from M-mode recordings in a modified short axis view. The intra ventricular septum (IVS), LV posterior wall (LVPW), LV diameter (LVD) in diastole and systole, the percentage of fractional shortening (FS) and the heart rate (HR) were measured from the mean of at least three separate cardiac cycles. A “blinded” echocardiographer, unaware of the genotype and the treatment, performed the examinations.

control mice = assay: Echocardiography of control (Sf/Sf) mice on NR diet; format: in vivo, mouse; conditions: D45 to D47
Description: Transgenic mice. All experiments with animals conformed to the Directive 2010/63/EU of the European Parliament and were approved by the ethics committee Charles Darvin #5 (agreement 00369.01). SRF^HKO mice bear the tamoxifen-inducible α-MHC-MerCrMer transgene and the Siffloxed allele (Sf/Sf) as described previously (Parlakian et al. (2005). Temporally controlled onset of dilated cardiomyopathy through disruption of the SRF gene in adult heart. Journal 112, 2930-2939; Tritsch et al. (2013). An SRF/miR-1 axis regulates NCX1 and Annexin A5 protein levels in the normal and failing heart. Journal 98, 372-380). Transgenic mice have been bred for more than 20 generations in C57BL/6N background. […]
Echocardiography was performed on lightly anesthetized mice given isoflurane (induction with 2% isoflurane 100% O2. and maintained with 0.5% isoflurance 100% O2). Non-invasive measurements of left ventricular dimensions were evaluated using Doppler echocardiography (Vivid 7 Dimension/Vivid7 PRO; GE Medical Systems) with a probe ultrasound frequency range of 9-14 MHz. […] LV fractional shortening (FS) was calculated using the formula: (LVEDD−LVESD)/LVEDD×100. LV myocardial volume (LVV), LV end-diastolic volume (EDV), and end-systolic volume (ESV) were calculated using a half-ellipsoid model of the LV. From these volumes, LV ejection fraction (EF) was calculated using, the formula: (EDV−ESV)/EDV×100. […]

[1] = NR diet 400 mg/kg/day vs chow-diet, echocardiography after 4 and 9 weeks

Q: `NC(=O)c1ccc[n+]([C@@H]2O[C@H](CO)[C@@H](O)[C@H]2O)c1` [NR, nicotinamide riboside] was tested. Which “left-ventricular end diastolic diameter (LVDd)” value (Lmna^H222P/H222P mice; [1]) did it give?
A: Its value is “significantly decreased”.

Q: What about the “left-ventricular end systolic diameter (LVDs)” value (Lmna^H222P/H222P mice; [1]) of the same molecule?
A: The value was “significantly decreased”.

Q: What about the “left-ventricular fractional shortening (FS)” value (Lmna^H222P/H222P mice; NR diet 400 mg/kg/day vs chow-diet, starting as early as four weeks of treatment) of the same molecule?
A: The value was “increased”.

Q: And the overall heart size (Lmna^H222P/H222P mice; NR diet vs chow-diet)?
A: Its overall heart size is “reduced”.

Q: What about the H/R ratio (control mice) of the same molecule?
A: Its H/R ratio is “slightly increased”.
